Laboratory results: the METLIN SMRT retention time set (Domingo-Almenara et al. 2019)

experiment: gradient 5% acetonitrile 3 min, to 50% in 2 min, to 85% in 15 min, held 3 min, 100 µL/min; settings: column: Zorbax Extend-C18 2.1 x 50 mm; eluents: water / acetonitrile, 0.1% formic acid
Procedure, shortened: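 Pure standards were analyzed in mixtures of ~100 molecules using HPLC coupled to a quadrupole time-of-flight mass spectrometer, in both positive and negative ionization mode. Separation used a Zorbax Extend-C18 column (2.1 × 50 mm, 1.8 μm) at 100 μL/min, with water and acetonitrile each containing 0.1% formic acid. Dead and dwell volumes were 40 μL and 900 μL, and data were collected over 3 months. Retention time was read from computationally picked adduct peaks, each inspected manually.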

| SMILES | RP-LC retention time [s] |
| --- | --- |
| Cc1ccc(NS(=O)(=O)c2cc(-c3[nH]ncc3C(=O)N3CCCCC3)oc2C)c(C)c1 | 791 |
| COc1cccc(CNC(=O)C2CCN(c3cc(N4CCSCC4)ncn3)CC2)c1 | 656 |
| CC1=NS(=O)(=O)N(C)C=C1C(=O)OCc1nc(Cc2cccc(C)c2)no1 | 957 |
| COc1ccc(CCNC(=O)C2CCN(S(=O)(=O)c3cn(C(C)C)cn3)CC2)cc1OC | 689 |
| CSCc1csc(NC(=O)C2CCCC2)n1 | 782 |
| Cc1ccc(-c2nc3n(CC(=O)NCC4CCCO4)c4c(c(=O)n3n2)CCC4)cc1 (centres undefined) | 720 |
| CCOC(=O)COc1ccccc1C1CC(c2cccs2)=NN1C(=O)c1ccco1 (centres undefined) | 941 |
| Cc1cc(C)n(CCC(=O)NCC2Cn3cccc3C(=O)N2C)n1 (centres undefined) | 593 |
| Cc1ccc(C)c(NC(=O)Cn2ncc3c(c2=O)N(C2CC2)C(=O)CS3)c1 | 732 |
| Cc1cc(C(=O)N(CCc2cccs2)Cc2cccnc2)c(C)o1 | 619 |
| CCSc1nnc(-c2nn(C)c3c2CN(S(=O)(=O)c2ccccc2Cl)CC3)n1CC | 948 |
| CCCNC(=O)C1CCCN(c2nc3ncn(CC(=O)Nc4cc(C)cc(C)c4)c(=O)c3s2)C1 (centres undefined) | 759 |
| CCOC(=O)C1CCN(C(=O)C2CCN(c3nnc(-c4ccc(C)cc4)o3)CC2)CC1 | 842 |
| COc1cccc(-c2n[nH]c3c2C(c2ccc(O)cc2)N(C)C3=O)c1 (centres undefined) | 693 |
| CN1CCCn2cc(S(=O)(=O)Nc3cc(F)cc(F)c3)cc2C1=O | 718 |
| Cc1ccc(NC(=O)N2CCC(c3nc(C(=O)N4CCCC4)c(C)o3)CC2)cc1Cl | 895 |
| Cc1nn(C(C)C)c(C)c1S(=O)(=O)N1CCN(C(=O)c2ccsc2)CC1 | 775 |
| COc1ccc(CNC(=O)c2nsc(C(=O)NCCc3ccc(OC)c(OC)c3)c2N)cc1 | 922 |
| COC(=O)CNC(=O)N1CCCC1c1cccc(F)c1 (centres undefined) | 701 |
| CCc1ccc(C(=O)N2CCC3(C2)C(=O)Nc2ccc(OC)cc23)cc1 (centres undefined) | 786 |
| CN(C(=O)c1ccncc1)c1ccccc1 | 667 |
| CC(O)C1CCN(Cc2ccc(Br)o2)CC1 (centres undefined) | 566 |
| O=c1n(Cc2cc(F)cc(F)c2)nc2c(S(=O)(=O)N3CCCCCC3)cccn12 | 973 |

| SMILES | RP-LC retention time [s] |
| --- | --- |
| Cc1nnc(SCC2=C(C(=O)O)N3C(=O)C(NC(=O)Cn4cnnn4)C3SC2)s1 (centres undefined) | 641 |
| CCn1cc(C(=O)N[C@H](C(=O)O)C(C)C)c(=O)c2cc3c(cc21)OCO3 | 681 |
| Cc1ccc(C(=O)NCCc2ncc(C)n2C2CCC2)s1 | 564 |
| CCc1nn(CC)c(=O)c2cc(S(=O)(=O)NC(C)c3ccccc3)cn12 (centres undefined) | 964 |
| COc1cc(OC)c(NC(=O)Cc2cn3cc(F)ccc3n2)cc1Cl | 637 |
| Cc1cc(=O)n(CC(=O)N2CCCc3ccccc32)c(N2CCCCC2)n1 | 703 |
| CC1CCC(N2CC(=O)N(CCN3CCOCC3)C(c3cccnc3)C2=O)CC1 (centres undefined) | 548 |
| CC1CCN(S(=O)(=O)c2ccc(-c3nnc(C(=O)NCCN4CCOCC4)o3)cc2)CC1 | 674 |
| Cc1cc(N2CCN(S(=O)(=O)c3ccccc3)CC2)nc(NC2CCCCC2)n1 | 776 |
| CC(C)C(=O)NCc1csc(C2CCCN(C(=O)C3CCCC3)C2)n1 (centres undefined) | 691 |
| CCNC(=O)c1nc(-c2ccncc2)cs1 | 574 |
| Cc1ccccc1NC(=O)C1CCN(S(=O)(=O)c2cc(-c3noc(C4CCC4)n3)cs2)CC1 | 1060 |
| CCn1c(=O)c(C)nc2cc(-c3noc(-c4ccc(F)c(F)c4)n3)ccc21 | 1150 |
| COc1ccc(-c2noc(Cc3nnc(-c4cc(F)cc(F)c4)o3)n2)cc1 | 1040 |
| CCc1cnc2c(c1OC)c(=O)n(Cc1ccccc1F)c(=O)n2C | 970 |
| CC1=C(c2ccccc2)S(=O)(=O)N=C1N1CCCN(C(=O)NC(C)(C)C)CC1 | 790 |
| Cc1cc(C)cc(NC(=O)Cn2cccc(-c3nc(-c4ccc(Br)cc4)no3)c2=O)c1 | 1060 |
| COc1ccc(-c2nnc(-c3cc(S(=O)(=O)N4CCC(C)CC4)ccc3Cl)o2)cc1 | 1160 |
| CCOC(=O)N1CCN(C(=O)Cc2csc(NC(=O)c3cnccn3)n2)CC1 | 598 |
| Cc1ncsc1CN1CCn2c(nnc2[C@@H]2C[C@@H](O)CN2Cc2cccnc2)C1 | 544 |
| CCOC(=O)c1ccc2ncc(C(=O)OCC)c(NCCN(C)C)c2c1 | 569 |
| CCC(C(=O)NCc1ccc(C)o1)n1nc(C)c2c(C)n(-c3ccccc3)nc2c1=O (centres undefined) | 862 |

Next, values leading:

| RP-LC retention time [s] | SMILES |
| --- | --- |
| 698 | CN1CCN(Cc2ccc(C(=O)NCCC3=CCCCC3)cc2)C(=O)C1=O |
| 820 | CC(=O)Nc1nsc(N2CCC(C(=O)N3CCN(c4cc(C)ccc4C)CC3)CC2)n1 |
| 1120 | Cc1nn(C(C)C(=O)Nc2cccc(F)c2)c(=O)c2c(-n3cccc3)n(-c3ccccc3)nc12 (centres undefined) |
| 1040 | CC1CCN(S(=O)(=O)c2ccc(-c3nnc(C(=O)NCc4ccccc4)o3)cc2)CC1 |
| 726 | Fc1ccc(F)c(CN2CC(Oc3ccc(-c4noc(-c5ccncc5)n4)cc3)C2)c1 |
| 806 | O=C(CCc1conc1-c1ccccc1)NCc1ccc2c(c1)OCO2 |
| 1260 | CCCCN1C(=O)c2cc(S(=O)(=O)N3CCc4ccccc43)ccc2Oc2cccnc21 |
| 735 | O=C(CSc1ccc(N2CCN(c3ccccc3)CC2)nn1)NCc1ccco1 |
| 961 | CCn1cc(-c2nc(-c3ccc(C)cc3)no2)c(=O)c2cc(F)c(N3CCOCC3)cc21 |
| 785 | CCC(C)NC(=O)c1ccc2ccnc(N3CCN(c4ccc(F)cc4)CC3)c2c1 (centres undefined) |
| 719 | CCCNC(=O)c1nc(N2CCSCC2)c2cnn(C)c2n1 |
| 1180 | COc1ccc(OC(=O)c2cn(CC(C)C)c(=O)c3ccccc23)cc1 |
| 1050 | COc1ccc(NC(=O)C2CCCN(c3nccnc3Sc3ccccc3)C2)cc1F (centres undefined) |
| 777 | Cn1ncc(NC(=O)c2ccccc2F)c(N2CCOCC2)c1=O |
| 828 | Cc1ccc(CC(=O)NC2CCN(c3ccc(F)cc3)C2=O)cc1 (centres undefined) |
| 925 | Cc1ccc2c(c1)N(C(=O)c1ccc(C#N)cc1)CCO2 |
| 613 | Cc1nnc2cc(N3CCN(Cc4ccc(C(C)C)cc4)CC3)cnn12 |
| 892 | CC(Oc1ccc(Cl)cc1)C(=O)N1CCCN(c2cc(-c3ccc(Br)cc3)[nH]n2)CC1 (centres undefined) |
| 821 | COC(=O)C1=CN(c2ccc(OC)c(OC)c2)c2cc(F)ccc2S1(=O)=O |
| 653 | CCC(CN(C)Cc1ccccc1)NC(=O)CSc1nc2ccccc2n(C)c1=O (centres undefined) |
| 746 | Cc1cc(C)nc(Nc2nc(C(=O)Nc3ccc(N4CCOCC4)cc3)cs2)n1 |
| 835 | CCCn1cc(CCNC(=O)Nc2ccc(Br)cc2)c2cccnc21 |

| RP-LC retention time [s] | SMILES |
| --- | --- |
| 693 | Cc1ccc(-c2ncc(C(=O)O)c(-c3ccncc3)n2)cc1 |
| 997 | CCOc1ccc(S(=O)(=O)N2CCC(C(=O)NCCc3csc(-c4ccccc4)n3)CC2)cc1 |
| 924 | COC(=O)COC(=O)c1cn(-c2cccc(OC)c2)c(=O)c2ccccc12 |
| 675 | COc1ccc(N2CCN(c3ncc4c(n3)CCN(Cc3ccc(C)cc3)C4)CC2)cc1 |
| 563 | Cc1cc(N2CCN(C(=O)c3ccc(Br)cc3)CC2)nc2nnc(C)n12 |
| 749 | CCc1ccccc1NS(=O)(=O)c1cc(-c2[nH]ncc2C(=O)N2CCCC2)oc1C |
| 740 | CC(C)n1cnc(S(=O)(=O)N2CCC(C(=O)Nc3ccc(F)cc3)CC2)c1 |
| 872 | CCOc1ccc(C(C)NC(=O)c2c(C)sc3ccn(CC)c(=O)c23)cc1 (centres undefined) |
| 944 | CCc1ccc(C(=O)N2CCCC(COc3ccc(C(=O)NC(C)C)cc3)C2)cc1 (centres undefined) |
| 959 | CCN1C(=O)C(C)(C(=O)Nc2cc(OC)ccc2OC)Oc2cccnc21 (centres undefined) |
| 908 | CCOc1nc2ccccc2nc1N1CCCC(C(=O)Nc2ccc(NC(C)=O)cc2)C1 (centres undefined) |
| 638 | COc1ccc(N2CC(C(=O)Nc3cc(C)nn3C3CCS(=O)(=O)C3)CC2=O)cc1 (centres undefined) |
| 900 | COc1ccc(-c2noc(Cn3nc(-c4ccccc4)ccc3=O)n2)cc1OC |
| 591 | COc1ccc(-c2cc(N3CCN(C(=O)c4ccc(Br)o4)CC3)ncn2)cc1 |
| 795 | CN1c2ccc(F)cc2C(=O)NC12CCN(C(=O)Cc1ccc(Cl)cc1)CC2 |
| 901 | Cc1ccc(C(=O)N2CCc3nc(-c4ccc(F)cc4)ncc3C2)cc1C |
| 751 | CC(C)N1CCn2cc(S(=O)(=O)Nc3cccc(F)c3)cc2C1=O |
| 801 | CC(C)CC(=O)N1CCC(COc2ccc(C(=O)NC(C)C)cc2)CC1 |
| 861 | CCc1cccc(NC(=O)c2c(C)oc3nc(C)nc(N4CCCC4)c23)c1 |
| 642 | Cc1ccc2c(Nc3ccc(C)c(F)c3)c(C(=O)N3CCSCC3)cnc2n1 |
| 951 | CCCn1cc(S(=O)(=O)NCc2ccc(C)cc2)c2cccnc21 |
| 795 | CCOC(=O)c1ccc(Nc2c(-c3ccc(N4CCOCC4)cc3)nc3cnccn23)cc1 |
